This note sets out measurements from patent US4895937A, “5-ioso-2-pyrimidinone nucleoside” (The Research Foundation of State University of New York, priority 1988, dated 1990).

Experiment [1] has as its target thymidine kinase extracted from Varicella zoster virus infected cells (Human herpesvirus 3 strain Dumas, UniProt P09250). The experiment in a line: Binding affinity with thymidine kinase from Varicella zoster virus infected cells (Example 6). The procedure:
(§1) The methylmercapto composition, as described in Example 5. was tested for binding affinity with thymidine kinase from various sources. Viruses which induce the production of thymidine kinase, induce thymidine kinase specific to the virus. […] It is believed that the compound of the invention, in order to become active in inhibiting the replication of the virus, must become phosphorylated. For such phosphorylation to occur, the thymidine kinase must first bind to the compound. Since binding with thymidine kinase produced by the virus is much more efficient and effective than binding with thymidine kinase from other sources, phosphorylation of the compound occurs more rapidly in the presence of active viruses producing thymidine kinase. The compound, activated by phosphorylation, then is able to interfere with replication of the virus.

Another experiment relates to HSV-2. The experiment is described as follows: Viral inhibition, HSV-2 (Example 7, method of Example 5). It is filed as cell-based, herpes simplex type 2. Particulars: Human alphaherpesvirus 2. The procedure:
(§2) In accordance with the present invention, 1-(2-Deoxy-β-D-ribofuranosyl)-5-(methylmercapto)-2-pyrimidinone is prepared essentially in accordance with the procedure set forth in "Snythesis and Antiviral Activity of 1-(2-Deoxy-β-D-ribofuranosyl)-5-(methylmercapto)-2-pyrimidinone" by Schroeder and Bardos and Cheng, Volume 24, page 109, January 1981. HeLa cells were infected in 1640 RPMI medium with herpes simplex type 1 (HSV-1) and independently with herpes simplex type 2 (HSV-2) virus at a multiplicity of 5 to 10 plaque forming units per cell. The composition of 1640 RPMI medium is reported in "Biological Activity of 5 Ethyl, 5 Propyl, and 5 Vinyl 2'-Deoxyuridine" by Cheng et al published in Antimicrobial Agents and Chemotherapy, Volume 10, beginning at page 119 (1976). 1640 RPMI medium is commercially available from Gibco Company, Grand Island, N.Y. After 1 hour, virus absorption, the drugs were added. Resulting cultures were analyzed for virus titer at 24 hours post infection a described in the procedure set forth in "Biological Activity of 5-Ethyl, 5-Propyl and 5-Vinyl 2'-uridine" by Cheng et al. The results are set forth in Table 2. The numbers set forth in Table 2 show the number of plaque forming units in the control which contained no methylmercapto compound and the number of units at concentrations of 100, 200 and 400 micromoles of the methylmercapto compound. The results clearly indicate substantial decrease in the number of plaque forming units in the presence of 1-(2-Deoxy-β-D-ribofuranosyl)-5-(methylmercapto)-2-pyrimidinone.
(§3) The above described methyl compound was tested for viral inhibition substantially in accordance with the method of Example 5 except that the concentrations were 50 and 100 micromolar.

The test system of a further experiment is HSV-1(Kos). The experiment in a line: Virus titer in HSV-1 infected HeLa cells, 24 hours post infection (Example 5). It is filed as cell-based, herpes simplex type 1. Particulars: control 1.5 × 10^7. As for the experimental part: as §2
For experiment [2], the system named is thymidine kinase extracted from human cells. The experiment is described as follows: Binding affinity with thymidine kinase extracted from human cells (Example 6). The procedure: as §1
The target in experiment [3] is thymidine kinase extracted from cells infected with herpes simplex 1 virus (Human alphaherpesvirus 1 strain 17, UniProt P0DTH5). The experiment is described as follows: Binding affinity with thymidine kinase extracted from cells infected with herpes simplex 1 virus (Example 6). Particulars: herpes simplex 1 virus infected cells. As for the experimental part: as §1
The test system of another experiment is HSV-1. The experiment is described as follows: Viral inhibition, HSV-1 (Example 7, method of Example 5). It is filed as cell-based, herpes simplex type 1. The settings on record: Human alphaherpesvirus 1. As for the experimental part:
as §2, §3

A further experiment relates to HSV-2 (333). The experiment in a line: Virus titer in HSV-2 infected HeLa cells, 24 hours post infection (Example 5). The settings on record: control 1.2 × 10^7. It is filed as cell-based, herpes simplex type 2. As for the experimental part: as §2
Setting [4] is: 50 micromolar, vs untreated control.

thymidine kinase extracted from Varicella zoster virus infected cells, sequence (P09250 whole entry, looked up): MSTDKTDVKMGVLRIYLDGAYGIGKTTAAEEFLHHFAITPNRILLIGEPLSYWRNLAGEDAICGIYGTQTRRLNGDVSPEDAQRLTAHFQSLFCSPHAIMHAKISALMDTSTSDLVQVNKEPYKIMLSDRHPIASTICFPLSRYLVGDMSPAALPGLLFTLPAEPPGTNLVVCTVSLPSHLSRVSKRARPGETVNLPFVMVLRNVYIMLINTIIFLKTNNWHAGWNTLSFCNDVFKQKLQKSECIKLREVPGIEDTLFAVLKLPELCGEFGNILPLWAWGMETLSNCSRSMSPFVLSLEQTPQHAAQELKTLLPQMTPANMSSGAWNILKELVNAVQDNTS
thymidine kinase extracted from cells infected with herpes simplex 1 virus, sequence (P0DTH5 whole entry): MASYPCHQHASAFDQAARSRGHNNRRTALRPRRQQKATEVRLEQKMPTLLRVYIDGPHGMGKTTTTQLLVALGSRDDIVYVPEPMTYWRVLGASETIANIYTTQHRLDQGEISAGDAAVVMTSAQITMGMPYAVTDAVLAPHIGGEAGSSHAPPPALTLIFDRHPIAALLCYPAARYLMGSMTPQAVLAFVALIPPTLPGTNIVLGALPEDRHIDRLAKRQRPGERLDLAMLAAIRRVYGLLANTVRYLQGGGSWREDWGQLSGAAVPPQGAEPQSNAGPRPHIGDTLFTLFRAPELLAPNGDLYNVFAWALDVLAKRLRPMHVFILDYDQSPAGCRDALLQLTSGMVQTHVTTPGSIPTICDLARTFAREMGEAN

With `CSc1cnc(=O)n([C@H]2C[C@H](O)[C@@H](CO)O2)c1` [methylmercapto compound, 1-(2-Deoxy-β-D-ribofuranosyl)-5-(methylmercapto)-2-pyrimidinone], the entries for the “binding affinity with thymidine kinase” value in experiment [1], in experiment [2] and in experiment [3] were “great binding affinity”, “little binding affinity” and “great binding affinity”, respectively. The inhibition at 50 µM was 57.2% in the experiment with HSV-2 (setting [4]) and 41.1% in the experiment on HSV-1 (setting [4]). The values for the inhibition at 100 µM in the experiment with HSV-2 (100 micromolar) and with HSV-1 (100 micromolar) were 79.3% and 83.8%, respectively. For the same molecule, the “plaque-forming units/mL, HSV-1(Kos)” value in the experiment on HSV-1(Kos) (100 μM) is given as 6.4 × 10^7 plaque-forming units/mL; in the experiment on HSV-1(Kos) (200 μM), 1.7 × 10^6 plaque-forming units/mL; in the experiment with HSV-1(Kos) (400 μM), 3.4 × 10^5 plaque-forming units/mL. The “plaque-forming units/mL, HSV-2 (333)” value is 1.3 × 10^7 plaque-forming units/mL in the experiment with HSV-2 (333) (100 μM), 3.1 × 10^6 plaque-forming units/mL in the experiment with HSV-2 (333) (200 μM) and 3.2 × 10^5 plaque-forming units/mL with HSV-2 (333) (400 μM).

One may read the inhibition as the share of the control response that was lost under treatment. A higher inhibition goes with strong suppression.
